From PubChem BioAssay (NCI)
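Tested at 5 concentrations; 48 h exposure; 96-well plates; endpoints linearly interpolated, else capped at highest concentration. At the TGI there is no net growth.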

Tests used:
Assay in all cases: NCI-60 cell line screen, 48 h
CAKI-1 renal = tested on: CAKI-1 renal
HCC-2998 colon = tested on: HCC-2998 colon
HL-60(TB) leukemia = tested on: HL-60(TB) leukemia
MALME-3M melanoma = tested on: MALME-3M melanoma
OVCAR-8 ovarian = tested on: OVCAR-8 ovarian
U251 CNS = tested on: U251 CNS
UO-31 renal = tested on: UO-31 renal
HOP-92 NSCLC = tested on: HOP-92 NSCLC

Row | Structure (SMILES) | TGI (CAKI-1 renal) [µM] | TGI (HCC-2998 colon) [µM] | TGI (HL-60(TB) leukemia) [µM] | TGI (MALME-3M melanoma) [µM] | TGI (OVCAR-8 ovarian) [µM] | TGI (U251 CNS) [µM] | TGI (UO-31 renal) [µM] | TGI (HOP-92 NSCLC) [µM]
1 | O=C(/C=N/O)Nc1cccc(Cl)c1I | > 100 | > 100 | > 100 | > 100 | > 100 | > 100 | 78.3 | 
2 | Cc1ccc(/C=C2\CCCC(C(NO)c3ccc(C)cc3)C2=NO)cc1 (configuration not stated) | > 100 | 62 | 40.1 | > 100 | > 100 | > 100 | > 100 | 
3 | CCOc1ccccc1NC(=O)C1=C(C)NC(C)=C(C(=O)Nc2ccccc2OCC)C1c1ccc2c(c1)OCO2 | > 100 | 54.9 | 45.3 | 83.5 | > 100 | > 100 | > 100 | 56
4 | CCOC(=O)c1cnc2c(ccc3ncccc32)c1OCC |  | > 100 | > 100 | > 100 | > 100 | > 100 | > 100 | 
5 | COc1ccc(S(=O)(=O)NNS(C)(=O)=O)cc1OC | > 100 | > 100 | > 100 | > 100 | > 100 | > 100 | > 100 | 
6 | Clc1ccc(/C=C/c2csnn2)cc1 | > 100 | > 100 | > 100 | > 100 | > 100 | > 100 | > 100 | > 100
7 | Cc1ccc(-n2cc(/C(N)=N/O)c3ccccc3c2=O)cc1 |  | > 100 | > 100 | > 100 | > 100 | > 100 | > 100 | 
8 | Cc1cc2nc3c(C(OC4OC(CO)C(O)C(O)C4O)C(O)CO)nn(-c4ccc(F)cc4)c3nc2cc1C (configuration not stated) |  | > 100 |  | > 100 | > 100 | > 100 | > 100 | 
9 | COc1ccc(C2C(C(=O)O)=C(COC(C)=O)Oc3cc4c(cc32)OCO4)c(OC)c1 (configuration not stated) | > 100 |  | > 100 | > 100 | > 100 | > 100 | > 100 | > 100
10 | O=S1(=O)CS(=O)(=O)OCCCCCO1 | > 100 | > 100 |  | > 100 | > 100 | > 100 | > 100 | > 100
11 | Nc1cccc(C(=O)/C=C/c2ccccc2O)c1 | > 100 | > 100 | 46.9 | > 100 | > 100 | > 100 | > 100 | > 100
12 | Cc1cccc(NC(=O)CSc2nnc(-c3ccc(N=Cc4ccc(Cl)cc4)cc3)o2)c1 |  |  | > 100 | > 100 | > 100 | > 100 | > 100 | 
13 | NC(=O)C1C(=O)Oc2cccnc21 (configuration not stated) |  |  |  | > 100 | > 100 | > 100 | > 100 | 
14 | c1ccc2c(c1)n1nnnc1c1nnnn21 | > 100 | > 100 |  | > 100 | > 100 | > 100 | > 100 | > 100
15 | COc1cc([C@H]2c3cc4c(cc3[C@H](NCc3ccc(F)cc3)C3COC(=O)[C@H]32)OCO4)cc(OC)c1O (some centres not stated) |  | 23.8 | 4.7 | 19.5 | 35.1 | 4.35 | 14.9 | 49.5
16 | COc1ccc(/C(C#N)=C2/O/C(=N/N)C(c3ccc(OC)c(OC)c3)C2=O)cc1OC (configuration not stated) | > 100 |  | > 100 | > 100 |  | > 100 | > 100 | > 100
17 | Cc1c(C(=O)/C=C/c2ccc3c(c2)OCO3)[n+](=O)c2ccccc2n1[O-] | 85.7 | 57.5 | > 100 | > 100 | 62.9 | > 100 | 97.4 | 69.7
18 | COc1ccc(C2NC(c3ccc(OC)cc3)C(C)C(=O)C2C)cc1 (configuration not stated) |  | > 100 | > 100 | > 100 | > 100 | > 100 | > 100 | > 100
19 | CN(C)CCC(/C=C/c1ccccc1)=N\Nc1c(F)c(F)c(F)c(F)c1F |  |  | 37.8 | > 100 | > 100 | > 100 | > 100 | 
20 | O=C(Cn1ccnc1[N+](=O)[O-])NCc1ccc(F)cc1 | > 100 |  | > 100 | > 100 | > 100 | > 100 | > 100 | > 100
21 | O=C(N[C@H]1CC2(C=C(I)C(=O)C(I)=C2)OC1=O)OCc1ccccc1 | 36.3 | 34.6 | 21.4 | 31.9 | 31.3 | 31.5 | 32.1 | 
22 | O=C(CC/C(CC(=O)c1ccc(Cl)cc1)=N\O)Nc1cccc(Cl)c1 | > 100 | > 100 |  | > 100 | > 100 | > 100 | > 100 | 
23 | Cc1cc(N(CCC#N)CCC#N)ccc1/C=C1N=C(/C=C\c2ccccc2)N(c2ccc(C(=O)O)cc2)C\1=O | > 100 |  | > 100 | > 100 | > 100 | > 100 | > 100 | > 100
